Experimental data: patent US20250388572A1, “USE OF HPK1 INHIBITOR IN PREVENTION AND/OR TREATMENT OF HUMAN PATHOGEN INFECTION” (priority 2022, published 2025)
Where two headings read alike, the source gives them in different places.

Tests used:
hPBMCs = assay: Pharmacodynamic evaluation for hPBMCs (IL-2 by ELISA); assay type: cell-based, human; conditions: 1 uM, 24 hours, CD3/CD28-activated hPBMCs
Procedure: The hPBMCs used in this experiment were purchased from Shanghai AoNeng Biotechnology Co., Ltd. CD3 antibody was pre-coated onto a 96-well plate for future use. Cells were seeded into the 96-well plate at 2×10^6/ml, with 200 μL per well. CD28 antibody was added for activation, and Compound A2 was added at a final concentration of 1 μM. The supernatant was collected after 24 hours of treatment. IL-2 levels were determined by ELISA, and the effects of A2 and CD3/CD28 on the activation of hPBMCs were compared.

[1] = human, microsomes, 1 h, 10 µM
Procedure: (§1) The procedure for identifying microsomal metabolites is as follows:
(§2) The compounds (test compounds and their numbers are shown below, among which compounds A1 and B1 are prepared by referring to the relevant method disclosed in CN110396087A) were weighed and dissolved into dimethyl sulfoxide to prepare a 20 mM solution. The compound stock solution was diluted with 50% acetonitrile in water (v/v) to a concentration of 1.0 mM as a working solution. Liver microsomes (20 mg/mL) were diluted to 1.27 mg/mL with 50 mM dipotassium hydrogen phosphate buffer as a liver microsome working solution. Reduced coenzyme was weighed and dissolved in 3307 μL of phosphate buffer (50 mM) to 5.0 mM as a reduced coenzyme working solution. For T=60 minutes samples, 4 μL of test working solution (1.0 mM) was added, followed by 316 μL of liver microsome working solution (1.27 mg/mL), and finally, 80 μL of reduced coenzyme working solution was added to start the reaction. For T=0 minutes samples, 316 μL of liver microsome working solution (1.27 mg/mL) was added and then 80 μL of reduced coenzyme working solution was added to start the reaction, without test solution incubation. After incubation at 37° C. for 60 minutes, 1200 μL of stop solution was added to stop the enzyme reaction. For T=0 minute samples, 4 μL of test working solution (1.0 mM) was added. The sample plate was placed on a vortexer and vortexed at 600 rpm for 5 minutes. Then, the sample plate was centrifuged at 4000 rpm for 10 minutes. The supernatant was removed, mixed, and dried at room temperature with nitrogen. The residue dried with nitrogen was redissolved in 300 μL of 10% acetonitrile (0.1% FA) solvent and then centrifuged at 4000 rpm for 15 minutes. The supernatant was transferred to a detection plate for mass spectrometry. Mass spectrometry was performed using LC/Q-Exactive plus.
(§3) 7-Ethoxycoumarin (10 μM) was selected as a positive control compound and operated in parallel with the compounds.

[2] = beagle, dog, microsomes, 1 h, 10 µM
Procedure: as §1, §2, §3

MHV-A59 virus = assay: Pharmacodynamic evaluation for MHV, high-dose virus group; assay type: in vivo, C57BL/6 mice; conditions: 10 mg/kg daily, 2×10^6 PFU; for survival rate: all control mice died
Procedure: The effect of A2 on the prevention and treatment of MHV was investigated.
High-dose virus group: 21 male SPF grade C57BL/6 mice, aged 4 weeks, were divided into three groups: control group, precaution group and therapy group. These mice were anesthetized and then injected intrahepatically (i.h.) with 100 μL of DMEM containing 2×10^6 PFU MHV-A59 virus. The precaution group was given the first dose of A2 at 10 mg/kg 24 hours before the challenge, and the therapy group was given the first dose of A2 at 10 mg/kg 24 hours after the challenge, followed by daily continuous administration, both the precaution group and the therapy group being given a daily dose of 10 mg/kg. The weight change, clinical symptoms of disease and mortality of infected mice were monitored daily.

[3] = rat, microsomes, 1 h, 10 µM
Procedure: as §1, §2, §3

SARS-Cov-2 virus = assay: Pharmacodynamic evaluation for Covid 19 in hamsters; assay type: in vivo, Syrian golden hamsters
Procedure: A total of 20 wild-type Syrian golden hamsters, aged 6-8 weeks, with half male and half female, were randomly divided into two groups: control group (n=4), and therapy group consisting of 5 mg/kg and 20 mg/kg groups, with 8 mice per group. Starting from day 0 (DO), the hamsters in the therapy group were given A2 orally at a total daily dose of 5 mg/kg or 20 mg/kg, and the control group was given an equal amount of blank drug orally daily. Meanwhile, on day 0, all hamsters were anesthetized and then inoculated intranasally with 100 uL of 1.375×10^6 PFU/mL SARS-Cov-2 virus. Clinical manifestations and body weight were monitored daily. At the end of the study, tissues (e.g., lungs) were collected and weighed, and virus RNA and infectious virus were then quantified.

in vivo = conditions: male, Sprague Dawley, rat
Procedure: Six male Sprague Dawley rats were administrated a single dose via intravenous injection (iv, n=3) and oral administration (po, n=3), respectively. Intravenous injection was performed by formulating the compounds into 0.25 mg/ml or 0.5 mg/mL solutions using 10% DMSO/30% PEG400/60% water and administering it at a volume of 2 mL/kg. Oral administration was performed by formulating the compounds into 0.6 mg/ml or 2.0 mg/mL homogeneous suspensions using 0.5% methylcellulose and administering it at a volume of 5 mL/kg.
The pharmacokinetic parameters of the compounds were calculated using the WinNolin non-compartmental model.

For `[2H]C([2H])([2H])N1CCC(n2cc(-c3cnc(N)c(OCc4cccc(C#CC(C)(C)O)c4)c3)cn2)CC1` [Compound A2, 4-(3-(((2-amino-5-(1-(1-trideuteriomethylpiperidin-4-yl)-1H-pyrazol-4-yl)pyridin-3-yl)oxy)methyl)phenyl)-2-methylbut-3-yn-2-ol], the “IL-2 concentration ratio (stimulated by A2−unstimulated)/(stimulated−unstimulated)” value (hPBMCs) was 5.89 fold, the “remaining percentage of the parent cores after 60 min” value (shortened to “remaining percentage”) [1] was 83.9% and the “remaining percentage” value [2] was 7.0%. It also gave a survival rate (MHV-A59 virus; precaution group) of 42.86%, an average body weight (MHV-A59 virus; precaution group, day 1) of 13.39 g and an average body weight (MHV-A59 virus; precaution group, day 8) of 16.34 g. The survival rate (MHV-A59 virus; therapy group) was 28.57%, the average body weight (MHV-A59 virus; therapy group, day 1) was 12.48 g and the average body weight (MHV-A59 virus; therapy group, day 8) was 11.39 g. For the same molecule, the “remaining percentage” value [3] was 52.1%, the “body weight of SARS-Cov-2 infected hamsters” value (SARS-Cov-2 virus; 20 mg/kg daily, oral) was “gained weight at a much faster rate” and the “lung weight normalized to total body weight” value (SARS-Cov-2 virus; all A2 dose groups (5 mg/kg and 20 mg/kg daily, oral)) was “decreased”. For the same molecule, the AUC(0-t) (in vivo; iv, 1 mg/kg) was 0.247 µg·h/mL, the clearance (in vivo; iv, 1 mg/kg) was 4.26 L/h/kg and the AUC(0-t) (in vivo; po, 10 mg/kg) was 0.572 µg·h/mL. For the same molecule, the bioavailability (in vivo; po, 10 mg/kg) was 23.2%.
